Data from patent publication US10538561B2, “Peptide for treating inflammatory diseases” (priority 2015, dated 2020).

System: HaCaT (Human keratinocyte)
Assay: LDH enzyme release assay
Assay type: cell-based
Protocol: For testing Apoptosis the Human Keratinocytes (HaCaT) cell line has been employed. The growth conditions are DMEM containing 1% FBS. […] Test concentration range is IS181 is tested at the highest (Qualitative analysis) effective concentrations selected on the basis of Quantitative JC-1 assay. The method of estimation is Mitochondrial membrane depolarization by JC-1 assay (Early apoptosis), LDH enzyme release (Necrosis). Treatment regimen & time points are JC-1 assay—Single addition, 20 h; LDH assay—Single addition, 24 h; Positive control: Triton-X-100, Doxorubicin-hydrochloride
End-point: Percentage increase in LDH activity in treated cells with respect to untreated.

H-WVQRVVEKFLK-OH [IS181, H-Trp-Val-Gln-Arg-Val-Val-Glu-Lys-Phe-Leu-Lys-OH]
increase in LDH enzyme activity with respect to untreated (750 μg/ml to 2 mg/ml): ≥ 90%
% Increase with respect to untreated (LDH) (24 h, 400 μg/ml): 26.03%
LDH Activity (mU/ml) (24 h, 400 μg/ml): 79.73 mU/ml
% Increase with respect to untreated (LDH) (24 h, 475 μg/ml): ***49.73%
LDH Activity (mU/ml) (24 h, 475 μg/ml): 94.71 mU/ml
% Increase with respect to untreated (LDH) (24 h, 500 μg/ml): **34.76%
LDH Activity (mU/ml) (24 h, 500 μg/ml): 85.25 mU/ml
% Increase with respect to untreated (LDH) (24 h, 750 μg/ml): ***90.43%
LDH Activity (mU/ml) (24 h, 750 μg/ml): 120.47 mU/ml
% Increase with respect to untreated (LDH) (24 h, 1000 μg/ml): ***116.28%
LDH Activity (mU/ml) (24 h, 1000 μg/ml): 136.82 mU/ml
% Increase with respect to untreated (LDH) (24 h, 2000 μg/ml): ***119.09%
LDH Activity (mU/ml) (24 h, 2000 μg/ml): 138.60 mU/ml
increase in LDH enzyme release with respect to untreated (24 h, concentrations around IC50 value): > 50%
